Measurements as given in ChEMBL document CHEMBL1134180, “Synthesis and biological evaluation of DNA targeting flexible side-chain substituted beta-carboline derivatives” (Bioorg Med Chem Lett, 2001).

Columns and labels:
[1] = organism: Homo sapiens; experiment: Inhibitory concentration against Human Gastric cancer cell (BGC) lines was determined.; format: functional; conditions: Stomach
[2] = system: KB; experiment: Inhibitory concentration against KB cancer cell lines was determined.; format: functional, cell-based; conditions: Homo sapiens
[3] = system: HL-60; experiment: Inhibitory concentration against Human leukemia cancer cell (HL-60)lines was determined.; format: functional, cell-based
[4] = system: HeLa; experiment: Inhibitory concentration against Hella cancer cell lines was determined.; format: functional, cell-based; conditions: Homo sapiens
[5] = system: BGC-823; experiment: Inhibitory concentration against Human Gastric cancer cell (BGC)lines was determined.; format: functional, cell-based; conditions: BGC-823, Stomach

Row | SMILES | IC50 [1] | IC50 [2] | IC50 [3] | IC50 [4] | IC50 [5]
1 | O=c1[nH]cc(F)c(=O)[nH]1 [FLUOROURACIL] | 68 µM | 3.5 µM | 1 µM | 1.6 µM | –
2 | CCN(CC)CCNC(=O)c1cc2c3ccccc3nc-2c[nH]1 | – | 250 µM | 130 µM | – | 98 µM
3 | NCCNC(=O)c1cc2c3ccccc3nc-2c[nH]1 | – | 140 µM | 81 µM | – | –
4 | CN(C)CCCCNC(=O)c1cc2c3ccccc3nc-2c[nH]1 | – | – | – | 140 µM | –
5 | NCCCCNC(=O)c1cc2c(cn1)[nH]c1ccccc12 | – | 4.1 µM | 1.9 µM | – | 8.6 µM
6 | NCCCCCCNC(=O)c1cc2c3ccccc3nc-2c[nH]1 | – | – | 510 µM | – | –
